# Results: patent US20030109504A1, “Treatment of movement disorders with metabotropic glutamate receptors antagonist” (priority 2000, published 2003)
# “Also recorded” adds a separate entry of the source.
# What was measured:
# [1] = test system: reserpine-treated rat model of Parkinson's disease; experiment: Locomotion (mobile counts) in reserpine-treated rat model of Parkinson's disease, antagonist combined with chloro-APB or quinpirole; assay type: in vivo; conditions: for total mobile counts: antagonist 1 mg/kg plus chloro-APB 0.2 mg/kg, versus vehicle plus chloro-APB (FIG. 1)
# Method: The effect of metabotropic glutamate receptor antagonists on the anti-parkinsonian effects of chloro-APB (0.2 mg/kg) or quinpirole (0.1 mg/kg) was assessed in a reserpine-treated rat model of Parkinson's disease.
# Male Sprague-Dawley rats were split into two groups A and B. Rats in both groups were rendered parkinsonian by subcutaneous administration of reserpine (3 mg/kg) for 18 hours.
# After the 18 hours Group A were treated with either chloro-APB (0.2 mg/kg) or quinpirole (0.1 mg/kg) and then subdivided into groups A1, A2 and A3. These subgroups were additionally administered the following selective metabotropic glutamate receptor antagonists (1 mg/kg):
# A1: (RS)-1-Aminoindan-1,5-dicarboxylic acid (AIDA—Group I metabotropic glutamate receptor antagonist);
# A2: (2S)-alpha-Ethylglutamic acid (EGLU—Group II metabotropic glutamate receptor antagonist); and
# A3: (RS)-alpha-Methylserine-O-phosphate (MSOP—Group III metabotropic glutamate receptor antagonist).
# Group B were treated with chloro-APB (0.2 mg/kg) and vehicle for the antagonists only.
# The locomotion of the rats in Groups A and B was measured over a one hour period using Benwick locomotor monitors. These locomotion monitors consist of a visually-shielded open-field arena, the perimeter of which is surrounded by a series of infra-red beams arranged at 5 cm intervals. PC-based software (Amlogger) assesses the number of beams broken. The number of beams broken as part of a locomotor movement (mobile counts) or the number of beam breaks while the animal is not locomoting (static counts) were measured. In addition, the system assesses the time for which animals are mobile or static.
# [2] = test system: MPTP-lesioned marmoset model of Parkinson's disease; experiment: Mobility, locomotor activity and dyskinesia in MPTP-lesioned marmoset model of Parkinson's disease, combination with L-DOPA; assay type: in vivo, Marmosets (Callithrix jacchus); conditions: MPTP-lesioned marmosets; for L-DOPA-induced mobility and locomotor activity (reversal of parkinsonism): L-DOPA 8 mg/kg with or without SIB-1893 10 mg/kg (FIG. 3)
# Method: The effect of the mGluR group I (selective for mGlu5) receptor antagonist SIB-1893 in combination with L-DOPA was assessed in the MPTP-lesioned marmoset model of Parkinson's disease. The ability of the traditional anti-parkinsonian agent L-DOPA to alleviate symptoms was compared with the combined therapy.
# Marmosets (Callithrix jacchus) (bred in a closed colony at the University of Manchester) are rendered parkinsonian by subcutaneous injection of 2 mg kg^−1 MPTP for 5 consecutive days. The marmosets are allowed to recover for a minimum of 10 weeks until their parkinsonism becomes stable. The degree of activity and disability before and after MPTP treatment is assessed using a combination of scales as described below. Animals are then treated with L-DOPA for at least 3 weeks to prime them to elicit dyskinesia.
# 1) Activity—a quantitative assessment using computer-based activity monitors was obtained every 5 minutes for the duration of the experiment. p1 2) Parkinsonian disability—non-parametric measures based on the following scales:
# Mobility score: 0=no movement, 1=movement of head on the floor of the cage, 2=movement of limbs, but no locomotion, on the floor of the cage, 3=movement of head or trunk on wall of cage or perch, 4=movement of limbs, but no locomotion, on wall of cage or perch, 5=walking around floor of cage or eating from hopper on floor, 6=hopping on floor of cage, 7=climbing onto wall of cage or perch, 8=climbing up and down the walls of the cage or along perch, 9=running, jumping, climbing between cage walls/perch/roof, uses limbs through a wide range of motion and activity.
# Dyskinesia score: 0Absent, 1=Mild, fleeting, 2=Moderate, not interfering with normal activity, 3=Marked, at times interfering with normal activity, 4=Severe, continuous, replacing normal activity.
# The behavioural tests were assessed every 30 minutes for 4 hours, by post hoc analysis of video-recordings by an observer blinded to the treatment.
# The treatments were randomised such that on each day all six marmosets received one of the treatments. […]
# [3] = reserpine-treated Sprague-Dawley rats, one hour
Structure (SMILES),"total mobile counts [1, 3]",L-DOPA-induced mobility and locomotor activity (reversal of parkinsonism) [2],further results
"NC1(C(=O)O)CCc2cc(C(=O)O)ccc21 (racemic) [AIDA, (RS)-1-Aminoindan-1,5-dicarboxylic acid]",greater than those treated with vehicle and chloro-APB only,–,"efficacy in combination therapy (overall conclusion) ([1]; reserpine-treated rats, combination with chloro-APB or quinpirole): particularly effective"
"CC(N)(COP(=O)(O)O)C(=O)O (racemic) [MSOP, (RS)-alpha-Methylserine-O-phosphate]",greater than those treated with vehicle and chloro-APB only,–,–
"CC[C@](N)(CCC(=O)O)C(=O)O [EGLU, (2S)-alpha-Ethylglutamic acid]",–,–,"mobility (locomotion) ([1]; reserpine-treated Sprague-Dawley rats, antagonist 1 mg/kg plus quinpirole 0.1 mg/kg, one hour, versus vehicle plus quinpirole (FIG. 2)): greater mobility than those treated with vehicle and quinpirole only"
N[C@@H](Cc1ccc(O)c(O)c1)C(=O)O [L-DOPA],–,good anti-parkinsonian action,–
"Cc1cccc(C=Cc2ccccc2)n1 [SIB-1893, 2-Methyl-6-(2-phenylethenyl)pyridine]",–,good anti-parkinsonian action; also recorded: as effective as L-DOPA alone in reversing parkinsonism,"L-DOPA-induced dyskinesia ([2]; L-DOPA 8 mg/kg plus SIB-1893 10 mg/kg versus vehicle plus L-DOPA, p<0.05 (FIG. 4)): significantly less severe L-DOPA-induced dyskinesia"
